Experimental findings from publication PMC8881610 (Nature Communications, 2022) are described below.

Values joined by “and” are separate entries in the source; they are usually repeats but may differ in a detail not shown here. Equal values may be shown once. Read-outs that look alike come from different tables or passages of the source. Where a SMILES comes first, the peptide text is derived from it. [ ]: non-standard residue; d: D form. Aib = CC(C)(N)C(=O)O

Assay [1] addresses T1, GIPR (Homo sapiens, UniProt P48546).
T1 sequence (P48546 22-466): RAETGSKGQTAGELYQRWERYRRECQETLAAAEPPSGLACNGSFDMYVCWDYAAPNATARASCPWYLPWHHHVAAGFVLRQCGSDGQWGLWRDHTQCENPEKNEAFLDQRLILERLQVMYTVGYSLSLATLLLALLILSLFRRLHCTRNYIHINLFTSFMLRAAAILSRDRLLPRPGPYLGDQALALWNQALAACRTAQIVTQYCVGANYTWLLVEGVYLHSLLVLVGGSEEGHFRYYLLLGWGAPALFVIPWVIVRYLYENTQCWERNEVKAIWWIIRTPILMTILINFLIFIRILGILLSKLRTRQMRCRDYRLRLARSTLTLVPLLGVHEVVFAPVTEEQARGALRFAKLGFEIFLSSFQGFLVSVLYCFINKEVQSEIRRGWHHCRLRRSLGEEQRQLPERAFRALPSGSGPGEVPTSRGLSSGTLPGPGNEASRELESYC
Briefly: cAMP accumulation assay (LANCE Ultra cAMP kit), GIPR WT, mutant or modified constructs. The class given is cell-based. On the set-up: acylated tirzepatide to the full-length or modified; Flag; expressed in transfected cells; host or cells: HEK293T. The settings on record: for EC50 / Emax: HEK293T; for Emax: HEK-293T, read-out: cAMP accumulation Emax. The method, then: (§1) Human embryonic kidney 293 cells containing SV40 large T-antigen (HEK293T) were cultured in DMEM (Gibco) supplemented with 10% (v/v) fetal bovine serum (FBS, Gibco), 1 mM sodium pyruvate (Gibco) and 100 units/mL penicillin and 100 μg/mL streptomycin at 37 °C in 5% CO2. Chinese hamster ovary (CHO-K1) cells were cultured in F-12 (Gibco) containing 10% FBS, 100 units/mL penicillin and 100 μg/mL streptomycin at 37 °C in 5% CO2. For cAMP and receptor expression assays, HEK293T cells were seeded into 6-well cell culture plates at a density of 7 × 10^5 cells per well. After overnight incubation, cells were transfected with GIPR, GLP-1R or GCGR construct using Lipofectamine 2000 or Lipofectamine 3000 transfection reagent (Invitrogen). For whole-cell binding assay, CHO-K1 cells were seeded into 96-well fibronectin-treated cell culture plates at a density of 3 × 10^4 cells per well. After overnight incubation, cells were transfected with GIPR, GLP-1R or GCGR construct using Lipofectamine 2000 transfection reagent (Invitrogen). Following 24 h culturing, the transfected cells were ready for use.
A BRIL fusion protein was added at the N-terminal of the ECD with a TEV protease site and 2GSA linker between them. C-terminal 45 amino acids (Q422-C466) of the receptor were truncated. LgBiT was added at the end of helix 8 with a 15-amino acid (15AA) polypeptide linker in between, followed by a TEV protease cleavage site and an OMBP-MBP tag. […] The construct and various mutants of human GIPR were cloned into pcDNA3.1 vector for cAMP accumulation and whole-cell binding assays.
For GIPR, GLP-1R and GCGR, multi-targeting agonist stimulated cAMP accumulation was measured by a LANCE Ultra cAMP kit (PerkinElmer). After 24 h culture, the transfected cells were seeded into 384-well microtiter plates at a density of 3,000 cells per well in HBSS supplemented with 5 mM HEPES, 0.1% (w/v) BSA or 0.1% (w/v) casein and 0.5 mM 3-isobutyl-1-methylxanthine. The cells were stimulated with different concentrations of peptide agonists for 40 min at RT. Eu-cAMP tracer and ULight^TM-anti-cAMP were then diluted by cAMP detection buffer and added to the plates separately to terminate the reaction. Plates were incubated at RT for 1 h and the fluorescence intensity measured at 620 nm and […] by an EnVision multilabel plate reader (PerkinElmer).

Assay [2] deals with T1, GIPR. Briefly: Whole-cell binding assay, competition with 125I-GIP1-42. On the set-up: acylated tirzepatide to the full-length or modified; Flag; expressed in transfected cells. The method, then: as §1
For GIPR, CHO-K1 cells were cultured in F-12 medium with 10% FBS and seeded at a density of 30,000 cells/well in Isoplate-96 plates (PerkinElmer). The WT or mutant GIPR was transiently transfected using Lipofectamine 2000 transfection reagent as previous described. They were then washed twice using F-12 with 0.1% BSA or 0.1% casein, 33 mM HEPES, and incubated for 2 h at 37 °C. […] Following incubation, cells were washed three times with ice-cold PBS and lysed by addition of 50 μL lysis buffer (PBS supplemented with 20 mM Tris-HCl, 1% Triton X-100, pH 7.4). Fifty µL of scintillation cocktail (OptiPhase SuperMix, PerkinElmer) were added and the plates were subsequently counted for radioactivity (counts per minute, CPM) in a MicroBeta^2 microplate counter (PerkinElmer).

For a further assay, the target named is GLP-1R (Homo sapiens, UniProt P43220). Briefly: Whole-cell binding assay, competition with 125I-GLP-1(7-36)NH2. The settings on record: for binding Span / IC50: CHO-K1. More on the design: Flag; expressed in transfected cells. Here is the method:
as §1
For GLP-1R and GCGR, CHO-K1 cells (30,000 cells/well) were seeded into Isoplate-96 plates and incubated for 24 h at 37 °C in 5% CO2. The WT or mutant constructs were transiently transfected using Lipofectamine 2000 transfection reagent as previous described. They were then washed twice using F-12 with 0.1% BSA or 0.1% casein, 33 mM HEPES, and incubated for 2 h at 37 °C. […] Cells were washed three times with ice-cold PBS and lysed in PBS with 1% Triton X-100, 20 mM Tris-HCl. After addition of scintillation cocktail (PerkinElmer), radioactivity (CPM) was counted on a MicroBeta^2 microplate counter (PerkinElmer). Data were normalized to the WT response and analyzed using three-parameter logistic equation.

The mark [3] stands for this setting: GIPR WT, 0.1% casein, CHO-K1, read-out: Binding pIC50 (converted).
Setting [4] is: GIPR, effect of tirzepatide acylation, CHO-K1, read-out: binding pIC50 (converted).

Chain of GLP-1R (P43220 24-463): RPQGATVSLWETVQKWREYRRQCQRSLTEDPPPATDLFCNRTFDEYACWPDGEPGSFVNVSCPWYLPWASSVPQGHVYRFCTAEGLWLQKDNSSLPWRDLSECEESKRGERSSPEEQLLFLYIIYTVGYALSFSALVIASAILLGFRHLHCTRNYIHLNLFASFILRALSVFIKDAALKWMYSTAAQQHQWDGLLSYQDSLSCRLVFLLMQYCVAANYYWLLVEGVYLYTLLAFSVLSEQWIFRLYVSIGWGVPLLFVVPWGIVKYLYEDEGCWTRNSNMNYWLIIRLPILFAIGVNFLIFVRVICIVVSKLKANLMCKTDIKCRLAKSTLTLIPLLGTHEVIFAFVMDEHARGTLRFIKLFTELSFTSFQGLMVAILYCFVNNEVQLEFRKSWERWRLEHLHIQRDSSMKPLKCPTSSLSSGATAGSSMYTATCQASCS

In the case of `CC[C@H](C)[C@H](NC(=O)[C@H](CC(C)C)NC(=O)[C@H](Cc1c[nH]c2ccccc12)NC(=O)[C@H](CCC(N)=O)NC(=O)[C@@H](NC(=O)[C@H](Cc1ccccc1)NC(=O)[C@H](C)NC(=O)[C@H](CCCCN)NC(=O)[C@H](CCC(N)=O)NC(=O)[C@H](C)NC(=O)[C@@H](NC(=O)[C@H](CCCCN)NC(=O)[C@H](CC(=O)O)NC(=O)[C@H](CC(C)C)NC(=O)C(C)(C)NC(=O)[C@@H](NC(=O)[C@H](CO)NC(=O)[C@H](Cc1ccc(O)cc1)NC(=O)[C@H](CC(=O)O)NC(=O)[C@H](CO)NC(=O)[C@@H](NC(=O)[C@H](Cc1ccccc1)NC(=O)[C@@H](NC(=O)CNC(=O)[C@H](CCC(=O)O)NC(=O)C(C)(C)NC(=O)[C@@H](N)Cc1ccc(O)cc1)[C@@H](C)O)[C@@H](C)O)[C@@H](C)CC)[C@@H](C)CC)C(C)C)C(=O)N[C@@H](C)C(=O)NCC(=O)NCC(=O)N1CCC[C@H]1C(=O)N[C@@H](CO)C(=O)N[C@@H](CO)C(=O)NCC(=O)N[C@@H](C)C(=O)N1CCC[C@H]1C(=O)N1CCC[C@H]1C(=O)N1CCC[C@H]1C(=O)N[C@@H](CO)C(N)=O` [Non-acylated tirzepatide], at GIPR [1] (GIPR WT, 0.1% BSA, read-out: cAMP accumulation pEC50 (converted)), the EC50 was 0.00182 nM. In addition, the “binding Span” value at GIPR [2] (GIPR WT, 0.1% casein, CHO-K1) was 88.80 ± 5.25; on GIPR [2] (GIPR, effect of tirzepatide acylation, CHO-K1), 90.71 ± 3.70 % WT or Tirzepatide; at GLP-1R (GLP-1R WT, 0.1% casein), 80.39 ± 9.18; on GLP-1R (GLP-1R, effect of tirzepatide acylation) it was 81.36 ± 4.36 % WT or Tirzepatide. Besides, the IC50 at GIPR [2] (setting [3]) is 3.39 nM; on GIPR [2] (setting [4]) it was 12.6 nM; at GLP-1R (GLP-1R WT, 0.1% casein, read-out: Binding pIC50 (converted)), 24.5 nM; on GLP-1R (GLP-1R, effect of tirzepatide acylation, read-out: binding pIC50 (converted)) it was 12.3 nM.

Regarding `CC(C)C[C@H](NC(=O)[C@H](CC(C)C)NC(=O)[C@H](Cc1c[nH]c2ccccc12)NC(=O)[C@H](CCC(N)=O)NC(=O)[C@@H](NC(=O)[C@H](Cc1ccccc1)NC(=O)[C@H](CC(=O)O)NC(=O)[C@H](CCC(N)=O)NC(=O)[C@H](C)NC(=O)[C@H](C)NC(=O)[C@H](CCCNC(=N)N)NC(=O)[C@H](CCC(=O)O)NC(=O)[C@H](CC(=O)O)NC(=O)[C@H](CC(C)C)NC(=O)[C@H](Cc1ccc(O)cc1)NC(=O)[C@H](CCCCN)NC(=O)[C@H](CO)NC(=O)[C@H](CCCCN)NC(=O)[C@H](CC(=O)O)NC(=O)[C@H](CO)NC(=O)[C@@H](NC(=O)[C@H](Cc1ccccc1)NC(=O)[C@@H](NC(=O)CNC(=O)[C@H](CCC(N)=O)NC(=O)C(C)(C)NC(=O)[C@@H](N)Cc1c[nH]cn1)[C@@H](C)O)[C@@H](C)O)C(C)C)C(=O)N[C@@H](CC(=O)O)C(=O)NCC(=O)NCC(=O)N1CCC[C@H]1C(=O)N[C@@H](CO)C(=O)N[C@@H](CO)C(=O)NCC(=O)N[C@@H](C)C(=O)N1CCC[C@H]1C(=O)N1CCC[C@H]1C(=O)N1CCC[C@H]1C(=O)N[C@@H](CO)C(N)=O` [Non-lipidated peptide 20] (H-H[Aib]QGTFTSDKSKYLDERAAQDFVQWLLDGGPSSGAPPPS-NH2; N-terminus and C-terminus assumed), at GIPR [1] (GIPR, 0.1% BSA), the “reduction of cAMP accumulation vs peptide 20” value is on record as 1,288 fold. In addition, the “EC50 for cAMP accumulation relative to peptide 20” value on GIPR [1] (GIPR, 0.1% casein) is −871 fold. Further, the maximal response (Emax) (usually the greatest response seen or fitted, relative to the assay's reference) came out at 99.4 ± 6.44% on GIPR [1] (GIPR WT, 0.1% BSA) and 88.5 ± 6.52% on GIPR [1] (GIPR WT, 0.1% casein). Besides, the IC50 was 51.3 nM on GIPR [2] (GIPR WT, 0.1% BSA, CHO-K1, read-out: Binding pIC50 (converted)) and 170 nM at GIPR [2] (setting [3]). The “decrease of binding ability (IC50) vs peptide 20” value at GLP-1R (GLP-1R, 0.1% casein or 0.1% BSA) is recorded as 3- to 17 fold.

Regarding `CC[C@H](C)[C@H](NC(=O)[C@H](CC(C)C)NC(=O)[C@H](Cc1c[nH]c2ccccc12)NC(=O)[C@H](CCC(N)=O)NC(=O)[C@@H](NC(=O)[C@H](Cc1ccccc1)NC(=O)[C@H](C)NC(=O)[C@H](CCCCNC(=O)COCCOCCNC(=O)COCCOCCNC(=O)CC[C@H](NC(=O)CCCCCCCCCCCCCCCCCCC(=O)O)C(=O)O)NC(=O)[C@H](CCC(N)=O)NC(=O)[C@H](C)NC(=O)[C@@H](NC(=O)[C@H](CCCCN)NC(=O)[C@H](CC(=O)O)NC(=O)[C@H](CC(C)C)NC(=O)C(C)(C)NC(=O)[C@@H](NC(=O)[C@H](CO)NC(=O)[C@H](Cc1ccc(O)cc1)NC(=O)[C@H](CC(=O)O)NC(=O)[C@H](CO)NC(=O)[C@@H](NC(=O)[C@H](Cc1ccccc1)NC(=O)[C@@H](NC(=O)CNC(=O)[C@H](CCC(=O)O)NC(=O)C(C)(C)NC(=O)[C@@H](N)Cc1ccc(O)cc1)[C@@H](C)O)[C@@H](C)O)[C@@H](C)CC)[C@@H](C)CC)C(C)C)C(=O)N[C@@H](C)C(=O)NCC(=O)NCC(=O)N1CCC[C@H]1C(=O)N[C@@H](CO)C(=O)N[C@@H](CO)C(=O)NCC(=O)N[C@@H](C)C(=O)N1CCC[C@H]1C(=O)N1CCC[C@H]1C(=O)N1CCC[C@H]1C(=O)N[C@@H](CO)C(N)=O` [Tirzepatide], the EC50 is 0.0288 nM on GIPR [1] (GIPR WT, read-out: cAMP pEC50 (converted)) and 0.0126 nM at GIPR [1] (GIPR, n = 4, SEM, read-out: cAMP pEC50 ± S.E.M. (converted)). Further, the IC50 was 31.6 nM at GIPR [2] (Fig. 7c receptor binding profile, n = 3 in duplicate, SEM, read-out: GIPR (pIC50 ± S.E.M.) (converted)); 3.16 nM on GIPR [2] (setting [3]); 89.1 nM and 97.7 nM on GIPR [2] (GIPR WT, CHO-K1, read-out: binding pIC50 (converted)); 105 nM on GIPR [2] (setting [4]). For the same compound, the “binding Span” value at GIPR [2] (GIPR WT, 0.1% casein, CHO-K1) came out at 92.95 ± 3.97; at GIPR [2] (GIPR WT, CHO-K1), 102.92 ± 6.94 % WT.
